{"source": "patent US20160175351A1", "about": "“CANCER TREATMENT” (DUKE UNIVERSITY, priority 2013, published 2016)", "key": {"[1]": {"tested_on": "Ctr1-/- MEFs expressing Ctr1^P25A", "experiment": "Cisplatin uptake/accumulation by ICP-MS in MEFs expressing Ctr1 P25A (FIG. 6)", "assay_type": "cell-based, mouse", "conditions": "inhibitor 10 μM over night, then cisplatin 200 μM for 2 h", "text": "(§1) FIG. 6 is a graph showing platinum accumulation in Ctr1 knockout MEFs (Ctr1^−/−), wild-type MEFs (Ctr1), or MEFs expressing Ctr1 with a Pro25Ala mutation (Ctr1^P25A). Each of the above were either untreated (1, 2 and 3), or treated with the Cathepsin L inhibitor Z-FY(tBu)-DMK (4, 5 and 6).\n(§2) Mouse embryonic fibroblasts from Ctr1^−/− embryos were stably transfected with the human Ctr1 and the human Ctr1 containing the proline to alanine mutation at position 25 (Ctr1^P25A). […] Cells were rinsed in three times with ice cold PBS before the cells were scraped and divided into two tubes; one for measuring metal concentration and one for protein quantification. […] Platinum concentrations in the digested samples were measured by inductively coupled plasma mass spectrometry ([…]) and normalized to the total amount of protein in the sample.\n(§3) Mouse Ctr1^−/− MEFs were transfected with vector alone (Ctr1^−/−), the expression vector expressing wild type Ctr1 (Ctr1) or the Ctr1^P25A mutant protein (Ctr1^P25A). Cells were incubated with cisplatin (200 μM for 2 h), or cisplatin plus the Cathepsin L inhibitor Z-FY(t-Bu)-DMK (10 μM) as indicated, harvested and cisplatin accumulation measured by ICP-MS and plotted on the Y-axis."}, "[2]": {"tested_on": "human Ctr1 containing the proline to alanine mutation at position 25 (Ctr1^P25A)", "experiment": "Ctr1 ectodomain cleavage, anti-Ctr1 immunoblot of Ctr1-/- MEFs stably transfected with human Ctr1 P25A (FIG. 5)", "assay_type": "cell-based", "conditions": "MEFs expressing Ctr1^P25A, inhibitor 10 μM, 16 hours, immunoblot (lane 4)", "procedure": "(§4) Each of the above were either untreated (lanes 1 and 2), or treated with the Cathepsin L inhibitor Z-FY(tBu)-DMK (lanes 3 and 4). F=full-length, T=truncated.\n(§5) Mouse embryonic fibroblasts from Ctr1^−/− embryos were stably transfected with the human Ctr1 and the human Ctr1 containing the proline to alanine mutation at position 25 (Ctr1^P25A). Cells were cultured in medium supplemented with 20% fetal bovine serum and treated with DMSO or 10 μM cysteine protease Cathepsin L, Z-FY(t-Bu)-DMK and harvested 16 hours later. Total proteins were isolated from the cells by homogenizing cells in ice cold PBS supplemented with 1% Triton-X, 0.1% SDS, and 1 mM EDTA. Cell debris was removed by centrifugation and the total amounts of soluble proteins were quantified in each sample. Equal amounts of proteins were separated on tris/glycine gradient gel, transferred to nitrocellulose membrane and blocked with 5% non-fat milk in Tris buffered saline supplemented with 0.05% Tween (TBST) for 1 h. Membranes were incubated with anti-Ctr1 antibody (1:1000) followed by anti-rabbit-HRP coupled antibody (1:5000) and bands detected by enhanced chemiluminescent substrate. Anti-Actin antibody was used as loading control.\n(§6) Inhibition of the cysteine protease Cathepsin L, Z-FY(t-Bu)-DMK (10 μM) (lanes 3 and 4) results in an increased levels of the copper and cisplatin binding full length form of Ctr1. […]"}, "[3]": {"tested_on": "Ctr1-/- MEFs expressing wild type Ctr1", "experiment": "Cisplatin uptake/accumulation by ICP-MS in MEFs expressing wild type Ctr1 (FIG. 6)", "assay_type": "cell-based, mouse", "conditions": "inhibitor 10 μM over night, then cisplatin 200 μM for 2 h", "text": "as §1, §2, §3"}, "human Ctr1": {"tested_on": "human Ctr1", "experiment": "Ctr1 ectodomain cleavage, anti-Ctr1 immunoblot of Ctr1-/- MEFs stably transfected with human Ctr1 (FIG. 5)", "assay_type": "cell-based", "conditions": "MEFs expressing human Ctr1, inhibitor 10 μM, 16 hours, immunoblot (lane 3)", "procedure": "as §4, §5, §6"}, "papain": {"biological_target": "T1, papain (Carica papaya, UniProt P00784)", "T1 sequence (P00784 134-345)": "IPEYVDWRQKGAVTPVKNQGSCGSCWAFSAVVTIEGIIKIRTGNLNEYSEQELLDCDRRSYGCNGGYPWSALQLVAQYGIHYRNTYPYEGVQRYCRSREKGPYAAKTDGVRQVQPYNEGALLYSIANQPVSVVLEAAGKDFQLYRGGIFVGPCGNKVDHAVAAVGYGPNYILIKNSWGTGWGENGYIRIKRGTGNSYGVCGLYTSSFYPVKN", "conditions": "known from literature (McGowan 1989; Barrett 1982); cited from earlier work"}, "cathepsin L": {"biological_target": "cathepsin L (Homo sapiens, UniProt P07711)", "sequence (P07711 114-333)": "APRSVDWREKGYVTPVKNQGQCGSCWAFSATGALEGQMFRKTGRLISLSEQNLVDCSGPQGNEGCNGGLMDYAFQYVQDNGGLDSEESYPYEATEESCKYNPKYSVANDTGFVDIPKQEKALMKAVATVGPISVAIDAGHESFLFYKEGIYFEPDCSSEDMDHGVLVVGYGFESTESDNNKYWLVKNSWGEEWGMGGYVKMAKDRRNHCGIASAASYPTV", "conditions": "known from literature (McGowan 1989; Barrett 1982); cited from earlier work"}, "cathepsin H": {"biological_target": "T2, cathepsin H (Homo sapiens, UniProt P09668)", "T2 sequence (P09668 98-335)": "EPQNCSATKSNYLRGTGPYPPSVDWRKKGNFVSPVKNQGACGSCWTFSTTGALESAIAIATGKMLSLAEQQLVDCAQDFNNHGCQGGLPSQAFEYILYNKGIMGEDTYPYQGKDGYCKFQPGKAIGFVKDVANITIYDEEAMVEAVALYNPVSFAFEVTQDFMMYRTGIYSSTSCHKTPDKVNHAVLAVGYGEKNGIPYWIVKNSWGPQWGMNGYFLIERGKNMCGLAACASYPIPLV", "conditions": "known from literature (McGowan 1989; Barrett 1982); cited from earlier work"}, "calpain": {"tested_on": "calpain", "conditions": "known from literature (McGowan 1989; Barrett 1982); cited from earlier work"}, "cathepsin B": {"biological_target": "cathepsin B (Homo sapiens, UniProt P07858)", "conditions": "known from literature (McGowan 1989; Barrett 1982); cited from earlier work"}, "[4]": {"tested_on": "Ctr1 ectodomain cleavage in wild type mouse embryonic fibroblasts", "experiment": "Ctr1 ectodomain cleavage, anti-Ctr1 immunoblot of wild type MEFs (FIG. 4)", "assay_type": "cell-based", "conditions": "E64d 10 μM, harvested 16 hours later", "text": "(§7) FIG. 4 is an immunoblot of protein extracts from wild-type MEFs (lanes 1-4) and Cathepsin L^−/− MEFs (lanes 5-8) with an anti-Ctr1 antibody and an anti-tubulin antibody. Lanes 1 and 2 are duplicate samples from untreated wild type MEFs. Lanes 3 and 4 are duplicate samples from wild-type MEFs treated with the Cathepsin L inhibitor E64d. Lanes 5 and 6 are duplicate samples from untreated Cathepsin L^−/− MEFs. Lanes 7 and 8 are duplicate samples from Cathepsin L^−/− MEFs treated with the Cathepsin L inhibitor E64d.\n(§8) Mouse embryonic fibroblasts from wild type and CatL^−/− littermates were cultured in medium supplemented with 10% fetal bovine serum and treated with DMSO or […] of the cell permeable cysteine protease inhibitor E64d and harvested 16 hours later. Total proteins were isolated from the cells by homogenizing cells in ice cold PBS supplemented with 1% Triton-X, 0.1% SDS, and 1 mM EDTA. Cell debris was removed by centrifugation and the total amounts of soluble proteins were quantified in each sample. Equal amounts of proteins were separated on Tris/glycine gradient gel, transferred to nitrocellulose membrane and blocked with 5% non-fat milk in Tris buffered saline supplemented with 0.05% Tween (TBST) for 1 h. Membranes were incubated with anti-Ctr1 antibody (1:1000) followed by anti-rabbit-HRP coupled antibody (1:5000) and bands detected by enhanced chemiluminescent substrate. […]"}, "[5]": {"tested_on": "Ctr1 ectodomain cleavage in Cathepsin L-/- mouse embryonic fibroblasts", "experiment": "Ctr1 ectodomain cleavage, anti-Ctr1 immunoblot of Cathepsin L-/- MEFs (FIG. 4)", "assay_type": "cell-based", "text": "as §7, §8"}}, "note": "Where a SMILES comes first, the peptide text is derived from it. The star is where a group is joined. Cbz = O=C(OCc1ccccc1)*; CHN2 = [N-]=[N+]=C*; tBu = CC(C)(C)*", "data": [{"smiles": "CC(C)(C)Oc1ccc(CC(NC(=O)C(Cc2ccccc2)NC(=O)OCc2ccccc2)C(=O)C=[N+]=[N-])cc1", "note": "(stereo not drawn) [Z-FY(t-Bu)-DMK, benzyl (1-((1-(4-(tert-butoxy)phenyl)-4-diazo-3-oxobutan-2-yl)amino)-1-oxo-3-phenylpropan-2-yl)carbamate] (Cbz-Phe-Tyr(tBu)-CHN2; configuration not given here)", "values": [{"measurement": "cisplatin accumulation (platinum by ICP-MS, normalized to protein)", "setting": "[1]", "result": "enhanced"}, {"measurement": "levels of the copper and cisplatin binding full length form of Ctr1", "setting": "[2]", "result": "increased"}, {"measurement": "cisplatin accumulation (platinum by ICP-MS, normalized to protein)", "setting": "[3]", "result": "enhanced"}, {"measurement": "levels of the copper and cisplatin binding full length form of Ctr1", "setting": "human Ctr1", "result": "increased"}]}, {"smiles": "CC(C)C[C@H](NC(=O)[C@H]1O[C@@H]1C(=O)O)C(=O)NCCCCN=C(N)N", "note": "(relative stereo) [E-64, trans-Epoxysuccinyl-L-leucylamido(4-guanidino)butane]", "values": [{"measurement": "inhibition of papain", "setting": "papain", "result": "inhibit"}, {"measurement": "inhibition of cathepsin L", "setting": "cathepsin L", "result": "inhibit"}, {"measurement": "inhibition of cathepsin H", "setting": "cathepsin H", "result": "inhibit"}, {"measurement": "inhibition of calpain", "setting": "calpain", "result": "inhibit"}, {"measurement": "inhibition of cathepsin B", "setting": "cathepsin B", "result": "inhibit"}]}, {"smiles": "CCOC(=O)[C@H]1O[C@@H]1C(=O)N[C@@H](CC(C)C)C(=O)NCCC(C)C", "note": "(relative stereo) [E64d, (2S,3S)-trans-Epoxysuccinyl-L-leucylamido-3-methylbutane ethyl ester]", "values": [{"measurement": "levels of cleaved Ctr1", "setting": "[4]", "result": "dramatic reduction"}, {"measurement": "levels of cleaved Ctr1", "setting": "[5]; Cathepsin L knock out MEFs, E64d 10 μM, 16 hours", "result": "not"}, {"measurement": "full-length Ctr1", "setting": "[5]; Cathepsin L-/- MEFs treated with E64d vs not treated", "result": "increase"}]}]}
